Patent publication EP0584797A2, “Novel cephalosporin compounds and processes for the preparation thereof” (LUCKY LTD., priority 1992, dated 1994)
Values after ≈ are worked out from the molar mass of the structure shown.

Columns and labels:
Assay in all cases: minimal inhibitory concentration, two-fold agar dilution
Format in all cases: cell-based
[1] = system: Enterobacter aerogenes ATCC 29751; settings: Klebsiella aerogenes, ATCC29751; Muller-Hinton agar; 37°C; 20 hours; read-out: MIC values against the standard strains
How it was run: (§1)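 Compounds were serially diluted two-fold into Mueller-Hinton agar, and each plate was spot-inoculated with the test strain at 10⁷ CFU per ml. Plates were incubated at 37°C for 20 hours before MIC values were read.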

[2] = system: Pseudomonas aeruginosa ATCC 25619; settings: ATCC25619, Muller-Hinton agar, 37°C, 20 hours, read-out: MIC values against the standard strains
How it was run: as §1

[3] = system: Shigella sonnei ATCC 11060; settings: ATCC11060, Muller-Hinton agar, 37°C, 20 hours, read-out: MIC values against the standard strains
How it was run: as §1

[4] = system: Enterobacter cloacae ATCC 27508; settings: ATCC27508, Muller-Hinton agar, 37°C, 20 hours, read-out: MIC values against the standard strains
How it was run: as §1

[5] = system: Citrobacter freundii ATCC 8090; settings: ATCC8090, Muller-Hinton agar, 37°C, 20 hours, read-out: MIC values against the standard strains
How it was run: as §1

[6] = system: Micrococcus luteus ATCC 9341; settings: ATCC9341, Muller-Hinton agar, 37°C, 20 hours, read-out: MIC values against the standard strains
How it was run: as §1

[7] = system: Staphylococcus aureus ATCC 6538p; settings: ATCC6538P, Muller-Hinton agar, 37°C, 20 hours, read-out: MIC values against the standard strains
How it was run: as §1

[8] = system: Morganella morganii ATCC 8076h; settings: ATCC8076H, Muller-Hinton agar, 37°C, 20 hours, read-out: MIC values against the standard strains
How it was run: as §1

[9] = system: Shigella flexneri ATCC 11836; settings: ATCC11836, Muller-Hinton agar, 37°C, 20 hours, read-out: MIC values against the standard strains
How it was run: as §1

[10] = system: Pseudomonas aeruginosa ATCC 27853; settings: ATCC27853, Muller-Hinton agar, 37°C, 20 hours, read-out: MIC values against the standard strains
How it was run: as §1

[11] = system: Staphylococcus epidermidis ATCC 12228; settings: ATCC12228, Muller-Hinton agar, 37°C, 20 hours, read-out: MIC values against the standard strains
How it was run: as §1

[12] = system: Pseudomonas aeruginosa ATCC 10145; settings: ATCC10145, Muller-Hinton agar, 37°C, 20 hours, read-out: MIC values against the standard strains
How it was run: as §1

[13] = system: Escherichia coli ATCC 25922; settings: ATCC25922, Muller-Hinton agar, 37°C, 20 hours, read-out: MIC values against the standard strains
How it was run: as §1

[14] = system: Providencia rettgeri ATCC 9250; settings: ATCC9250, Muller-Hinton agar, 37°C, 20 hours, read-out: MIC values against the standard strains
How it was run: as §1

[15] = system: Klebsiella pneumoniae ATCC 10031; settings: ATCC10031, Muller-Hinton agar, 37°C, 20 hours, read-out: MIC values against the standard strains
How it was run: as §1

[16] = system: Bacillus cereus ATCC 11778; settings: ATCC11778, Muller-Hinton agar, 37°C, 20 hours, read-out: MIC values against the standard strains
How it was run: as §1

[17] = system: Proteus mirabilis ATCC 25933; settings: ATCC25933, Muller-Hinton agar, 37°C, 20 hours, read-out: MIC values against the standard strains
How it was run: as §1

[18] = system: Staphylococcus aureus ATCC 10537; settings: ATCC10537, Muller-Hinton agar, 37°C, 20 hours, read-out: MIC values against the standard strains
How it was run: as §1

[19] = system: Escherichia coli ATCC 10536; settings: ATCC10536, Muller-Hinton agar, 37°C, 20 hours, read-out: MIC values against the standard strains
How it was run: as §1

[20] = system: Bacillus megaterium ATCC 9885; settings: Priestia megaterium, ATCC9885; Muller-Hinton agar; 37°C; 20 hours; read-out: MIC values against the standard strains
How it was run: as §1

[21] = system: Salmonella typhimurium ATCC 14028; settings: Salmonella enterica; Muller-Hinton agar; 37°C; 20 hours; read-out: MIC values against the standard strains
How it was run: as §1

[22] = system: Serratia marcescens ATCC 27117; settings: ATCC27117, Muller-Hinton agar, 37°C, 20 hours, read-out: MIC values against the standard strains
How it was run: as §1

[23] = system: Proteus vulgaris ATCC 6059; settings: ATCC6059, Muller-Hinton agar, 37°C, 20 hours, read-out: MIC values against the standard strains
How it was run: as §1

[24] = system: Streptococcus faecalis ATCC 29212; settings: Enterococcus faecalis, ATCC29212; Muller-Hinton agar; 37°C; 20 hours; read-out: MIC values against the standard strains
How it was run: as §1

[25] = system: Acinetobacter calcoaceticus ATCC 15437; settings: ATCC15437, Muller-Hinton agar, 37°C, 20 hours, read-out: MIC values against the standard strains
How it was run: as §1

`CCO/N=C(\C(=O)N[C@@H]1C(=O)N2C(C(=O)[O-])=C(CSc3nc(N)c(N)c(N)[n+]3CC)CS[C@H]12)c1csc(N)n1` [Example 13, 7-[(Z)-2-(2-aminothiazol-4-yl)-2-(ethoxyimino)acetamido]-3-(4,5,6-triamino-1-ethylpyrimidinium-2-yl)thiomethyl-3-cephem-4-carboxylate] was tested, and the MIC [1] was 2 µg/mL (≈ 3.36 µM), the MIC [2] was 8 µg/mL (≈ 13.5 µM) and the MIC [3] was 0.5 µg/mL (≈ 0.841 µM). The MIC [4] was 0.016 µg/mL (≈ 0.0269 µM), the MIC [5] was 0.5 µg/mL (≈ 0.841 µM) and the MIC [6] was 0.13 µg/mL (≈ 0.219 µM). It also gave an MIC [7] of 0.5 µg/mL (≈ 0.841 µM), an MIC [8] of 0.13 µg/mL (≈ 0.219 µM) and an MIC [9] of 0.5 µg/mL (≈ 0.841 µM). It also gave an MIC [10] of 32 µg/mL (≈ 53.8 µM), an MIC [11] of 0.13 µg/mL (≈ 0.219 µM) and an MIC [12] of 64 µg/mL (≈ 108 µM). For the same compound, the MIC [13] was 0.063 µg/mL (≈ 0.106 µM), the MIC [14] was 0.13 µg/mL (≈ 0.219 µM) and the MIC [15] was 0.13 µg/mL (≈ 0.219 µM). The MIC [16] was 64 µg/mL (≈ 108 µM), the MIC [17] was 2 µg/mL (≈ 3.36 µM) and the MIC [18] was 0.25 µg/mL (≈ 0.42 µM). For the same compound, the MIC [19] was 0.063 µg/mL (≈ 0.106 µM), the MIC [20] was 0.13 µg/mL (≈ 0.219 µM) and the MIC [21] was 1 µg/mL (≈ 1.68 µM). It also gave an MIC [22] of 1 µg/mL (≈ 1.68 µM), an MIC [23] of 2 µg/mL (≈ 3.36 µM) and an MIC [24] of over 128 µg/mL. For the same compound, the MIC [25] was 16 µg/mL (≈ 26.9 µM).

`CO/N=C(\C(=O)N[C@@H]1C(=O)N2C(C(=O)[O-])=C(CSc3nc(N)cc[n+]3C)CS[C@H]12)c1csc(N)n1` [Example 8, 7-[(Z)-2-(2-aminothiazol-4-yl)-2-(methoxyimino)acetamido]-3-(4-amino-1-methylpyrimidinium-2-yl)thiomethyl-3-cephem-4-carboxylate] was tested, and the MIC [1] was at most 0.008 µg/mL, the MIC [2] was 8 µg/mL (≈ 14.9 µM) and the MIC [3] was 0.13 µg/mL (≈ 0.242 µM). For the same compound, the MIC [4] was at most 0.008 µg/mL, the MIC [5] was 0.063 µg/mL (≈ 0.117 µM) and the MIC [6] was 0.13 µg/mL (≈ 0.242 µM). The MIC [7] was 0.5 µg/mL (≈ 0.932 µM), the MIC [8] was at most 0.008 µg/mL and the MIC [9] was 0.063 µg/mL (≈ 0.117 µM). The MIC [10] was 64 µg/mL (≈ 119 µM), the MIC [11] was 0.13 µg/mL (≈ 0.242 µM) and the MIC [12] was 64 µg/mL (≈ 119 µM). It also gave an MIC [13] of 0.063 µg/mL (≈ 0.117 µM), an MIC [14] of at most 0.008 µg/mL and an MIC [15] of 0.016 µg/mL (≈ 0.0298 µM). For the same compound, the MIC [16] was 64 µg/mL (≈ 119 µM), the MIC [17] was 0.25 µg/mL (≈ 0.466 µM) and the MIC [18] was 0.25 µg/mL (≈ 0.466 µM). The MIC [19] was 0.063 µg/mL (≈ 0.117 µM), the MIC [20] was 0.13 µg/mL (≈ 0.242 µM) and the MIC [21] was 0.25 µg/mL (≈ 0.466 µM). For the same compound, the MIC [22] was 0.25 µg/mL (≈ 0.466 µM), the MIC [23] was 0.25 µg/mL (≈ 0.466 µM) and the MIC [24] was 64 µg/mL (≈ 119 µM). For the same compound, the MIC [25] was 8 µg/mL (≈ 14.9 µM).

In the case of `CCO/N=C(\C(=O)N[C@@H]1C(=O)N2C(C(=O)[O-])=C(CSc3nc(N)cc[n+]3CC)CS[C@H]12)c1nsc(N)n1` [Example 16, 7-[(Z)-2-(5-amino-1,2,4-thiadiazol-3-yl)-2-(ethoxyimino)acetamido]-3-(4-amino-1-ethylpyrimidinium-2-yl)thiomethyl-3-cephem-4-carboxylate], the MIC [1] is reported as 0.063 µg/mL (≈ 0.111 µM), the MIC [2] is reported as 2 µg/mL (≈ 3.54 µM) and the MIC [3] is reported as 0.5 µg/mL (≈ 0.884 µM). The MIC [4] was 0.063 µg/mL (≈ 0.111 µM), the MIC [5] was 0.5 µg/mL (≈ 0.884 µM) and the MIC [6] was 0.5 µg/mL (≈ 0.884 µM). It also gave an MIC [7] of 0.25 µg/mL (≈ 0.442 µM), an MIC [8] of 0.031 µg/mL (≈ 0.0548 µM) and an MIC [9] of 0.5 µg/mL (≈ 0.884 µM). The MIC [10] was 4 µg/mL (≈ 7.07 µM), the MIC [11] was 0.5 µg/mL (≈ 0.884 µM) and the MIC [12] was 16 µg/mL (≈ 28.3 µM). The MIC [13] was 0.031 µg/mL (≈ 0.0548 µM), the MIC [14] was 0.031 µg/mL (≈ 0.0548 µM) and the MIC [15] was 0.016 µg/mL (≈ 0.0283 µM). The MIC [16] was 64 µg/mL (≈ 113 µM), the MIC [17] was 2 µg/mL (≈ 3.54 µM) and the MIC [18] was 0.5 µg/mL (≈ 0.884 µM). For the same compound, the MIC [19] was 0.031 µg/mL (≈ 0.0548 µM), the MIC [20] was 0.5 µg/mL (≈ 0.884 µM) and the MIC [21] was 1 µg/mL (≈ 1.77 µM). It also gave an MIC [22] of 1 µg/mL (≈ 1.77 µM), an MIC [23] of 2 µg/mL (≈ 3.54 µM) and an MIC [24] of 32 µg/mL (≈ 56.6 µM). The MIC [25] was 8 µg/mL (≈ 14.1 µM).
